# Patent US20240262934A1, “STARCH-INDOLE-ACID DERIVATIVE, PREPARATION METHOD THEREFOR, AND USE THEREOF” (SHANDONG SHANWEI IMMUNOTECH CO., LTD., priority 2021, published 2024)
# Like-named read-outs stand apart in the source and are kept apart here.
# Tests used:
# [1] = system: dextran sulfate sodium (DSS)-induced acute ulcerative colitis; experiment: DSS-induced acute ulcerative colitis in mice: body weight, colon length, DAI, colon status, tissue sections; assay type: in vivo; details: tested as 15% HAMSIAA-0.49 in feed
# Experimental: After the end of the experiment, a disease active index (DAI) of mice was evaluated, mouse colons were taken to measure their lengths, and a colon status of the mice was evaluated by sectioning, and the levels of cytokines IL-10, IL-6, IL-22, etc. in colon tissues of the mice were detected. The effect of […] on the prevention and treatment of DSS-induced acute ulcerative colitis in mice was finally evaluated by these indicators.
# [2] = system: TNF-α, IFN-γ, IL-4, IFN-α, IL-6 and IL-22; experiment: Serum cytokine content in SLE mice; assay type: in vivo; details: MRL/lpr mice; 1.5% HAMSIAA-0.32; after the experiment
# [3] = system: cytokines IL-10, IL-6, IL-1, IL-22 in mouse colon tissue; experiment: Cytokine levels in colon tissue of DSS colitis mice; assay type: in vivo; details: 1.5% HAMSIAA-0.32 in feed, vs model group
# Experimental: After the end of the experiment, a disease active index (DAI) of mice was evaluated, mouse colons were taken to measure their lengths, and a colon status of the mice was evaluated by sectioning, and the levels of cytokines IL-10, IL-6, IL-22, etc. in colon tissues of the mice were detected.
# [4] = system: ANA, Anti-dsDNA lgG2a, and Anti-Smith immune antibodies; experiment: Serum immune antibodies in SLE mice by ELISA; assay type: in vivo; details: MRL/lpr mice; 1.5% HAMSIAA-0.32; after one month of treatment and after the experiment
# Source text: After one month of treatment with HAMSIAA, blood serum samples from each group for mice were collected once. After the experiment, blood serum samples from each group of mice were collected again. The expression levels of ANA, Anti-dsDNA lgG2a, and Anti-Smith immune antibodies in the blood serum were detected by ELISA technique.
# [5] = system: B cells and CD4+CXCR5+ Tfh in the spleen of MRL/lpr mice; experiment: B cells, Tfh cells and BAFF in spleens of SLE mice; assay type: in vivo; details: 1.5% HAMSIAA-0.32, after the experiment
# Experimental: After the experiment, the expression levels of CD3^− B220^+ B cells, B220^+IgM^+ B cells, B220^+CD138^+ B cells, and B220^+IgD^+ B cells in the spleen for mice in each group in this embodiment were tested. […] Wherein,
# After the experiment, the expression levels of CD4^+CXCR5^+ Tfh in the spleens for mice in each group and BAFF in mice in each group in this Example were tested.
# [6] = system: Systemic lupus erythematosus model (MRL/lpr); experiment: Systemic lupus erythematosus model mice: kidney pathology, skin damage, spleen and lymph nodes; assay type: in vivo; details: 1.5% HAMSIAA-0.32 in feed, 14 weeks
# Experimental: • 1. Mouse food was prepared from the prepared […] in a certain addition ratio, and SLE model mice and control mice were purchased from Changzhou Cavens Experimental Animal Co., Ltd, aged 4-6 weeks. All mice were randomly divided into 4 groups: • Control group (MRL/MPJ); • Systemic lupus erythematosus model group (MRL/lpr); • Prednisone group (MRL/lpr+Prednisone); and • […] group ([…]). The […] group was given a special feed in which […] was added in a certain proportion for 14 weeks. Kidney tissues were collected after the end of the experiment. • 2. […] After the experiment, the spleens, cervical lymph nodes, and perirenal lymph nodes of each group for mice in this embodiment were collected.
# [7] = mouse, in vivo
# Experimental: (§1) A high performance liquid chromatography-tandem mass spectrometry (HPLC-MS/MS) technique was used to detect the content of metabolites IAA/IPA in each sample separately. Determination of the content of IAA/IPA in mouse feces: methanol was added into the collected feces, then vortexing, ultrasound extraction, and centrifuging were performed, a supernatant was taken to obtain an extract, the obtained extract was treated, IAA/IPA internal standards (IAA-d5/IPA-d2) were added for calibration, then purification was performed by using a small HLB solid-phase extraction column (pretreated with 5 mL of methanol and 5 mL water, then rinsed with 5 mL of a methanol/water mixed solution and 5 mL of water, an effluent being discarded, and finally eluted with 5 mL of methanol before use), and an eluate was analyzed by HPLC-MS/MS to detect IAA/IPA. Determination of the content of IAA/IPA in the hepatic portal blood and the peripheral blood: whole blood collected was allowed to stand and centrifuged at low temperature, and a supernatant was taken to obtain serum, and then an internal standard was added into the serum, purification was performed by using a solid-phase extraction column, and metabolites IAA/IPA in an eluate were detected by HPLC-MS/MS by the same method as described above. Determination of the content of IAA/IPA in the colon tissues: methanol was added into colon tissues collected, ultrasonically disrupted and further uniformly ground, then vortexing, ultrasound extraction, and centrifuging were performed, a supernatant was taken to obtain an extract, and then an internal standard was added into serum, purification was performed by using a solid-phase extraction column, and the concentration of IAA/IPA in the extract was detected by HPLC-MS/MS by the same method as described above.
# (§2) The experiments were divided into 5 groups in total: • 1. Blank control group; • 2. […] IAANa-containing water drinking group (with the IAANa concentration of 2.68 mg/mL, average daily drinking of 5 mL of water per mouse, and a total intake of 0.068 mmol IAANa); • 4. Gavage group (with the IAANa concentration of 67 mg/mL, daily gavage of 0.2 mL, and a total intake of 0.068 mmol IAANa); and • 5. Intraperitoneal injection group (with the IAANa concentration of 67 mg/mL, daily injection of 0.2 mL, and a total intake of 0.068 mmol IAANa).
# [8] = Concentration of IAA/IPA in colonic contents for different modes of administration; details: for concentration of IAA in feces (colonic contents, FIG. 8), improvement compared with the control group: 0.068 mmol IAANa
# Experimental: as §1, §2
# [9] = Concentration of IAA in hepatic portal blood serum for different modes of administration; assay type: in vivo, mice
# Source text: Blank control group; • 2.
# [10] = Concentration of IPA in feces of mice fed HAMSIPA feed; assay type: in vivo; details: 15% and 1.5% in feed, one week
# Experimental: Indole acid derivatized starches with different degrees of substitution were added to a mouse feed in a ratio of 15% and 1.5%, respectively, and feces were taken to test the IPA content after mice were fed with a special feed prepared for one week.
# [11] = IAANa-containing drinking water
compound,measurement,setting,value
indoleacetic acid derivatized high-amylose maize starch [HAMSIAA],severity of DSS-induced ulcerative colitis,[1],effectively alleviate
same,IFN-α expression level in blood serum,[2],significantly reduce
same,IFN-γ expression level in blood serum,[2],significantly reduce
same,IL-4 expression level in blood serum,[2],significantly reduce
same,IL-6 expression level in blood serum,[2],significantly reduce
same,TNF-α expression level in blood serum,[2],significantly reduce
same,expression level of the anti-inflammatory cytokine IL-22 in blood serum,[2],promotes
same,level of anti-inflammatory cytokine IL-10 in the colon tissue,[3]; FIG. 17,significantly increased
same,level of pro-inflammatory cytokine IL-6 in the colon tissue,[3]; FIG. 18,significantly reduced
same,level of pro-inflammatory cytokine in the colon tissue,[3]; FIG. 19,significantly reduced
same,content of IL-22 in the colon tissue,[3]; FIG. 21,significantly increased
same,expression level of ANA in blood serum,[4],significantly reduce
same,expression level of Anti-Smith in blood serum,[4],significantly reduce
same,expression level of Anti-dsDNA lgG2a in blood serum,[4],significantly reduce
same,expression level (concentration) of BAFF,[5],inhibit
same,expression level of CD4+CXCR5+ Tfh in the spleen,[5],inhibit
same,proliferation and differentiation of B cells in the spleen (CD3− B220+ B cells),[5],inhibit
same,proportion of B220+CD138+ B cells (plasma cells) in the spleen,[5],reduce
same,proportion of B220+IgD+ B cells in the spleen,[5],increase
same,proportion of B220+IgM+ B cells in the spleen,[5],increase
same,"HE staining of kidney tissues (glomerular volume, cellular proliferation, inflammatory cell infiltration)",[6],alleviated
same,Renal interstitial scores (renal interstitial nephritis),[6],significantly attenuates
same,cervical lymph node weight (lymph nodes enlargement),[6],significantly reduce
same,glomerular scores (glomerular injury),[6],significantly attenuates
same,glomerulonephritis and interstitial nephritis / symptoms in SLE mice compared with the SLE mouse model group,[6],effectively alleviate
same,perirenal lymph node weight (lymph nodes enlargement),[6],significantly reduce
same,scores of the degree of skin damage,[6],significantly reduces
same,concentration of IPA in the colonic contents compared with the control group,[7],significantly increased
O=C([O-])Cc1c[nH]c2ccccc12.[Na+] [IAANa],concentration of IPA in the colonic contents compared with the control group,[8]; [11],not significantly changed
same,"concentration of IAA in feces (colonic contents, FIG. 8), improvement compared with the control group","[8]; IAANa-containing drinking water, 2.68 mg/mL",about 30 times
same,concentration of IPA in the colonic contents compared with the control group,[8]; gavage,not significantly changed
same,"concentration of IAA in feces (colonic contents, FIG. 8), improvement compared with the control group","[8]; gavage, 67 mg/mL, 0.2 mL daily",about 7 times
same,concentration of IPA in the colonic contents compared with the control group,[8]; intraperitoneal injection,not significantly changed
same,"concentration of IAA in feces (colonic contents, FIG. 8), improvement compared with the control group","[8]; intraperitoneal injection, 67 mg/mL, 0.2 mL daily",about 7 times
same,concentration of IAA in the hepatic portal blood compared with the control group,[9]; [11],significant increase
same,concentration of IAA in the hepatic portal blood compared with the control group,[9]; gavage,significant increase
same,concentration of IAA in the hepatic portal blood compared with the control group,[9]; intraperitoneal injection,significant increase
Indolepropionic Acid Derivatized High-Amylose Maize Starch [HAMSIPA],concentration of IPA in the feces compared with the HAMS group,[10],significantly increased
